{"source": "patent US20100016382A1", "about": "“PHARMACEUTICAL COMPOSITION” (TAKEDA PHARMACEUTICAL COMPANY LIMITED, priority 2006, published 2010)", "assay": "physchem", "format": "physicochemical", "settings": "20 °C, water", "procedure": "Compound A is 2-ethoxy-1-{[2′-(5-oxo-4,5-dihydro-1,2,4-oxadiazol-3-yl)biphenyl-4-yl]methyl}-1H-benzimidazole-7-carboxylic acid (melting point: 191° C., solubility in water at 20° C. of about 0.006 g/L). In the following Examples and Reference Examples, the Japanese Pharmacopoeia 14th Edition or Japanese Pharmaceutical Excipients 2003 compatible products were used as the preparation additives. Of the preparation additives, while magnesium stearate is also the Japanese Pharmacopoeia 14th Edition compatible product, like other preparation additives, it particularly has a stearic acid content ratio of not less than about 90% (Taihei Chemical Industrial Co., Ltd.).", "data": [{"smiles": "CCOc1nc2cccc(C(=O)O)c2n1Cc1ccc(-c2ccccc2-c2noc(=O)[nH]2)cc1", "note": "[Compound A, 2-ethoxy-1-{[2′-(5-oxo-4,5-dihydro-1,2,4-oxadiazol-3-yl)biphenyl-4-yl]methyl}-1H-benzimidazole-7-carboxylic acid]", "values": [{"measurement": "solubility", "result": "~6", "unit": "µg/mL"}]}]}
